According to paper PMC10294644 (Cell, 2020):
Entries after “also recorded” stand apart in the source; their conditions may differ.

How the values were obtained:
IRAK1 = IRAK1 (Homo sapiens, UniProt P51617); format: cell-based; conditions: HEK293T cells, 1 μM, 5 h
YES1 = YES1 (Homo sapiens, UniProt P07947); format: cell-based; conditions: HEK293T cells, 1 μM, 5 h
GCK [1] = target: T1, GCK (Homo sapiens, UniProt Q12851); experiment: KiNativ live cell profiling; format: cell-based; conditions: CRBN−/− MOLT-4 cells, 1 μM, 5 h
T1 sequence (Q12851 1-820): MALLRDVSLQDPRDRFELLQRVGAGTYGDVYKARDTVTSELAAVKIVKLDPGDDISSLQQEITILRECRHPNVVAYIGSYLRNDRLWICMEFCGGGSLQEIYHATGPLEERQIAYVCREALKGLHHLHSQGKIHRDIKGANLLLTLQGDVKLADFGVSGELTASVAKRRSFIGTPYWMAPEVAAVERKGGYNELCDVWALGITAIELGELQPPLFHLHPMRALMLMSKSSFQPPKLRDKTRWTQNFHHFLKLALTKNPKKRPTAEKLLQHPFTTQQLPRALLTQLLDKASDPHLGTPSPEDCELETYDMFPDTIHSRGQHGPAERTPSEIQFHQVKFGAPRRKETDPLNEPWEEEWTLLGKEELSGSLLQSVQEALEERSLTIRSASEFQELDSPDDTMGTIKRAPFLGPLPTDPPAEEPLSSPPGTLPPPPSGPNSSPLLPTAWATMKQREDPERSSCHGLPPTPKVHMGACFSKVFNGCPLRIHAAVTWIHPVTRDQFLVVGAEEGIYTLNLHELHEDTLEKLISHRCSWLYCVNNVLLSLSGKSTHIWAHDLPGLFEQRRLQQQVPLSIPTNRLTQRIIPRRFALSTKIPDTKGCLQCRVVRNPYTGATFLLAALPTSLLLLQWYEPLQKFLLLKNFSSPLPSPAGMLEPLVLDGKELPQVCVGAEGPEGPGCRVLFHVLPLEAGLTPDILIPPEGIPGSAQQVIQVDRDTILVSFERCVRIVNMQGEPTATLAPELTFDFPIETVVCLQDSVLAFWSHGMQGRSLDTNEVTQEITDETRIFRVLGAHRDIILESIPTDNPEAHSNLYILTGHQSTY

GCK [2] = target: T1, GCK; experiment: Global quantitative proteomics, degradation of GCK; format: cell-based; conditions: 1 μM, 5 h
LYN = LYN (Homo sapiens, UniProt P07948); format: cell-based; conditions: HEK293T cells, 1 μM, 5 h
LYN, sequence (P07948 2-512 limits assumed): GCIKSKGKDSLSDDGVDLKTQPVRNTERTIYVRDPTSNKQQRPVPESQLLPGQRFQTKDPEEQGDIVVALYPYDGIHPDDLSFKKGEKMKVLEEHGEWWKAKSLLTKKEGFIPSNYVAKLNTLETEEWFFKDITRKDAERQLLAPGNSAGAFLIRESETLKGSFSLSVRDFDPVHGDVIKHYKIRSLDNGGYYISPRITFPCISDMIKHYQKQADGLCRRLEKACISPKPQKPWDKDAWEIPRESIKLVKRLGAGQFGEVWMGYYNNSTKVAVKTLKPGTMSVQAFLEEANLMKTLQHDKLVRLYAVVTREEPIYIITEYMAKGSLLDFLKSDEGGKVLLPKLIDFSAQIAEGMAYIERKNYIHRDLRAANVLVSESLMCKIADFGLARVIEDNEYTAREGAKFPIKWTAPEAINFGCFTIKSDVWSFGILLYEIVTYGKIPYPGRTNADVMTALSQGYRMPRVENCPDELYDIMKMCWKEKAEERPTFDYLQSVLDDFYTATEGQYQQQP
LYN, sequence (Q96SW2 whole entry partner): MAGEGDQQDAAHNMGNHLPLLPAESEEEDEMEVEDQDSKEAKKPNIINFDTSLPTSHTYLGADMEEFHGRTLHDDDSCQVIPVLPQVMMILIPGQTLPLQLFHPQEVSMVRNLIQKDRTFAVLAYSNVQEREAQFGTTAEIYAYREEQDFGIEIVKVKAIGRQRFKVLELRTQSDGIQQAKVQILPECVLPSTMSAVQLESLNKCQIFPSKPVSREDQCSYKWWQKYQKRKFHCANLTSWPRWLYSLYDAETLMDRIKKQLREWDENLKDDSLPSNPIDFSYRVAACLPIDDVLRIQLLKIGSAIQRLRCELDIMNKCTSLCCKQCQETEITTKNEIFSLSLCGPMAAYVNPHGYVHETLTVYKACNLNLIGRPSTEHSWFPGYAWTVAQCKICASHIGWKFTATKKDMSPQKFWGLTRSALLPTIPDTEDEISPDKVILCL
LYN, sequence (Q16531 2-1140 partner limits assumed): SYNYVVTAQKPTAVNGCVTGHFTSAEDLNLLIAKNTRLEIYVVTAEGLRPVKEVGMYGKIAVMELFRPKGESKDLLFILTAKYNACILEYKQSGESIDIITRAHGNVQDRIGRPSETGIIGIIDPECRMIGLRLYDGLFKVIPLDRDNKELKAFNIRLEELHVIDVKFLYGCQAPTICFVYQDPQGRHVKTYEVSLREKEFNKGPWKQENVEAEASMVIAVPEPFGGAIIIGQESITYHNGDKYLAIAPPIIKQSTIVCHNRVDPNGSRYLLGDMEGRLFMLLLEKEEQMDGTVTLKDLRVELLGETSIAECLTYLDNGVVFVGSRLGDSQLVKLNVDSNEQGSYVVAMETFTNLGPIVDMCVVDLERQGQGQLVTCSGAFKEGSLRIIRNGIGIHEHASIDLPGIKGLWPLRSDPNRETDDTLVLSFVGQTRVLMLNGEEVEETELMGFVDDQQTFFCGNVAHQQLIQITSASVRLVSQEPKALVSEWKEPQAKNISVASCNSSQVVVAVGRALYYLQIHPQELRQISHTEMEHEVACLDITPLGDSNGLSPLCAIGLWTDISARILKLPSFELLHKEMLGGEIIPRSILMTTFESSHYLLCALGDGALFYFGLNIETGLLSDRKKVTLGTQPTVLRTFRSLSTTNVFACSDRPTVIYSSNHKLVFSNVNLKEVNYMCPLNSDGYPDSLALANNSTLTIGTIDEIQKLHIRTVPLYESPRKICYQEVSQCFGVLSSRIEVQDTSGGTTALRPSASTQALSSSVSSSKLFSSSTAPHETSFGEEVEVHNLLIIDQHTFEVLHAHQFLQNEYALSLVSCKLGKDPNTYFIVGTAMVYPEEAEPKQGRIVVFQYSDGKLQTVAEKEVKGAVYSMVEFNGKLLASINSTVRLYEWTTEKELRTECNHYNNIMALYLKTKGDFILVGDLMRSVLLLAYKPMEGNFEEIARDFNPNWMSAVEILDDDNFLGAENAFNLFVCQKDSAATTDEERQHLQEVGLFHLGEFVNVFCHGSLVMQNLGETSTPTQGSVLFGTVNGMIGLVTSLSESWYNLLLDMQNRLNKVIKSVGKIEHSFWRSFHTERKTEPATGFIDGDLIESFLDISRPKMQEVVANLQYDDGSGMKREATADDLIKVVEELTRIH

[3] = tested on: MM.1S multiple myeloma cell line; experiment: CellTiter-Glo viability assay; format: cell-based, human; conditions: MM.1S cells, 72 h, compared with parental inhibitor alisertib
AURKA (Aurora A) = target: T2, AURKA (Aurora A) (Homo sapiens, UniProt O14965); experiment: Global quantitative proteomics and immunoblot, degradation of AURKA; format: cell-based; conditions: MOLT-4 cells 1 μM 5 h proteomics; validated by immunoblotting in MM.1S cells
T2 sequence (O14965 1-403): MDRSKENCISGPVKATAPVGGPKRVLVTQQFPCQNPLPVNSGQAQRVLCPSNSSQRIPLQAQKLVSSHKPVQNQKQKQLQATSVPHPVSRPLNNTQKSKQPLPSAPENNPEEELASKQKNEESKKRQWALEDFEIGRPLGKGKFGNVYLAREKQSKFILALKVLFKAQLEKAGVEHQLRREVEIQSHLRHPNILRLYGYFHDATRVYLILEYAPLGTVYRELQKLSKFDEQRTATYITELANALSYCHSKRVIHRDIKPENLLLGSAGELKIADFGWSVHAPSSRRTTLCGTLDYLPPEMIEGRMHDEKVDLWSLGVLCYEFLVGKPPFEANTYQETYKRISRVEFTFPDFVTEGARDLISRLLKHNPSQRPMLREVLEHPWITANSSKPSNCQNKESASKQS

CSK = CSK (Homo sapiens, UniProt P41240); experiment: Global quantitative proteomics; format: cell-based; conditions: MOLT-4 cells, 1 μM, 5 h
CSK, sequence (P41240 whole entry): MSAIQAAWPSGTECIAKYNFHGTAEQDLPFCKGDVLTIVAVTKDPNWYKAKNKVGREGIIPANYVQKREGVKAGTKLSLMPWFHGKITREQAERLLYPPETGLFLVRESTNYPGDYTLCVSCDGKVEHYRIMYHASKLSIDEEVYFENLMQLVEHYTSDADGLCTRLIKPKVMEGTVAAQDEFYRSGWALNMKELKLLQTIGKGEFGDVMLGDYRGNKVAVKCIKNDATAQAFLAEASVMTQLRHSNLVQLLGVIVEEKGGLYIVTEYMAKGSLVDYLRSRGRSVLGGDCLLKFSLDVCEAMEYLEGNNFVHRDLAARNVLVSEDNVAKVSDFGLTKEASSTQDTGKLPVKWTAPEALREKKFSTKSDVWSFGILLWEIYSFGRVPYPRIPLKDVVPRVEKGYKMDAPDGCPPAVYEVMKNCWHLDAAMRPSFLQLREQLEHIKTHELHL

MOLT-4 cells = experiment: Time-course RNA-sequencing; format: cell-based, human; conditions: for transcript levels: 1 μM
FLAG-tagged CRBN = FLAG-tagged CRBN (Homo sapiens, UniProt Q96SW2); experiment: FLAG-CRBN AP-MS, proteins enriched with CRBN; format: cell-based; conditions: HEK293T cells, 1 μM, 5 h, relative to SB1-G-187 and WH-10417–099
FLAG-tagged CRBN, sequence (Q96SW2 whole entry): as the sequence (Q96SW2 whole entry partner) above
FLAG-tagged CRBN, sequence (Q16531 2-1140 partner limits assumed): as the sequence (Q16531 2-1140 partner limits assumed) above

BUB1 = BUB1 (Homo sapiens, UniProt O43683); format: cell-based; conditions: MOLT-4 and MM.1S cell lines
BUB1, sequence (O43683 whole entry): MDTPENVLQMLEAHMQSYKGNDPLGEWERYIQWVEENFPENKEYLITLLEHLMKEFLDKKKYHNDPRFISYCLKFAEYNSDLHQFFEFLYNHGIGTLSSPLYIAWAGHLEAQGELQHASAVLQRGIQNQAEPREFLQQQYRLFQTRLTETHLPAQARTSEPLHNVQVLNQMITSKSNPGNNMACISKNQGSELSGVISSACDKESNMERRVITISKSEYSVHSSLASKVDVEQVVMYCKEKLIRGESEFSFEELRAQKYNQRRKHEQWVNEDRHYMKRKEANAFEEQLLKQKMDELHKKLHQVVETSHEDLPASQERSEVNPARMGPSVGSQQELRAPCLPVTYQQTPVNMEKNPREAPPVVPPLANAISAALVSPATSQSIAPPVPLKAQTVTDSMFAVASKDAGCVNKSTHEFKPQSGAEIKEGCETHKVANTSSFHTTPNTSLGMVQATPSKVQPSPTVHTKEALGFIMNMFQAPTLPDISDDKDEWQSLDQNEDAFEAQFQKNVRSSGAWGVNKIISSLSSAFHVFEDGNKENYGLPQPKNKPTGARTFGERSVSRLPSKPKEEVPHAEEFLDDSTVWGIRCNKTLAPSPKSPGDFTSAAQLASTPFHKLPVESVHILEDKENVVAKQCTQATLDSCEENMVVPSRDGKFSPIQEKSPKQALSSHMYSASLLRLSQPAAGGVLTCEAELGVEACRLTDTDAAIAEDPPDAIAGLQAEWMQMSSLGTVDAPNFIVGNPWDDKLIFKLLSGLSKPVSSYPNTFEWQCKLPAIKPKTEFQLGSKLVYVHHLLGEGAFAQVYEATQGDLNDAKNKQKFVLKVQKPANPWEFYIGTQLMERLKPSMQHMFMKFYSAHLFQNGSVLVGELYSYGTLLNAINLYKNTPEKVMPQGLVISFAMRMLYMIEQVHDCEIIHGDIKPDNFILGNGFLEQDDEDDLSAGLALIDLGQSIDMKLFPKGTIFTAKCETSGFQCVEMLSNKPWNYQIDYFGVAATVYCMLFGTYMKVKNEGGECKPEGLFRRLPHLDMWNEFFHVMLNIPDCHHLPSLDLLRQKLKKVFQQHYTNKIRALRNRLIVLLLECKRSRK
BUB1, sequence (Q96SW2 whole entry partner): as the sequence (Q96SW2 whole entry partner) above
BUB1, sequence (Q16531 2-1140 partner limits assumed): as the sequence (Q16531 2-1140 partner limits assumed) above

LIMK2 = LIMK2 (Homo sapiens, UniProt P53671); experiment: Global quantitative proteomics; format: cell-based; conditions: MOLT-4 cells, 1 μM, 5 h, relative protein abundance
CDK17 = CDK17 (Homo sapiens, UniProt Q00537); experiment: Global quantitative proteomics; format: cell-based; conditions: MOLT-4 cells, 1 μM, 5 h, relative protein abundance
CDK17, sequence (Q00537 whole entry): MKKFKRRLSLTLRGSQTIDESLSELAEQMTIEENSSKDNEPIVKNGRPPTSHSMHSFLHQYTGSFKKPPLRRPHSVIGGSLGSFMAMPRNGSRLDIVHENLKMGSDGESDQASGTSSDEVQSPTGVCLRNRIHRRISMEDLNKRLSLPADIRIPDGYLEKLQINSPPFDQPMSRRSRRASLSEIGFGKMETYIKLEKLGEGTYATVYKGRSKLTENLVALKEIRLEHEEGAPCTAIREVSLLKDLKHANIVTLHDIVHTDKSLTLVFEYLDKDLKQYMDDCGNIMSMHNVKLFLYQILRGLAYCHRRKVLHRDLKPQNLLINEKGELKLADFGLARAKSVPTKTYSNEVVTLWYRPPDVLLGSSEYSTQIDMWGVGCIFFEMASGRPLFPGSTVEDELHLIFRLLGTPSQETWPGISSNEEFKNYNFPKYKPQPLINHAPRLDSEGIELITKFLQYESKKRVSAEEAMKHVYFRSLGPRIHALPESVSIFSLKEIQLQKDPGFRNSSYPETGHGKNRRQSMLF

YES1, sequence (P07947 2-543 limits assumed): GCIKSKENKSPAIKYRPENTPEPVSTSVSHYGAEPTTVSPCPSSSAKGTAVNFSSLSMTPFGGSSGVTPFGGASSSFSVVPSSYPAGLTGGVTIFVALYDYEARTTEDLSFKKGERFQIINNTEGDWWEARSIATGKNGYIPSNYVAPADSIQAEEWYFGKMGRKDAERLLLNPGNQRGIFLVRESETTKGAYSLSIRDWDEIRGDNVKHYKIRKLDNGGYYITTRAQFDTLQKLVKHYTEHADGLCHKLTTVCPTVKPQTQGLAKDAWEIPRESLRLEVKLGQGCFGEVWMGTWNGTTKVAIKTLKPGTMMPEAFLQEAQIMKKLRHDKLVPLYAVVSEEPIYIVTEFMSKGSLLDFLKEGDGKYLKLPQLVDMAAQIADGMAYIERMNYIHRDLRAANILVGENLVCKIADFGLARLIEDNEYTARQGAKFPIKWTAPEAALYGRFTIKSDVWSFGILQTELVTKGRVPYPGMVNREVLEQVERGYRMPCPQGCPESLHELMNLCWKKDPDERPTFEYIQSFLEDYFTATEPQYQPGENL
YES1, sequence (Q96SW2 whole entry partner): as the sequence (Q96SW2 whole entry partner) above
YES1, sequence (Q16531 2-1140 partner limits assumed): as the sequence (Q16531 2-1140 partner limits assumed) above

SMILES: Cc1ccc(C(=O)Nc2ccc(CN3CCN(CCCOCCOCCOCCNC(=O)COc4cccc5c4C(=O)N(C4CCC(=O)NC4=O)C5=O)CC3)c(C(F)(F)F)c2)cc1C#Cc1cnc2cccnn12 (stereo not shown) [SB1-G-187]
- IRAK1 complex formation with CRBN and degradation (IRAK1): complex formation and degradation
- YES1 complex formation with CRBN and degradation (YES1): complex formation and degradation
- GCK engagement, inhibition of probe binding (GCK [1]): 94 %I
- degradation of GCK (GCK [2]): degraded
- LYN complex formation with CRBN and degradation (LYN): complex formation and degradation

SMILES: COc1cc(Nc2ncc3c(n2)-c2ccc(Cl)cc2C(c2c(F)cccc2OC)=NC3)ccc1C(=O)NCCCOCCOCCOCCCNC(=O)COc1cccc2c1C(=O)N(C1CCC(=O)NC1=O)C2=O (stereo not shown) [dAURK-4]
- antiproliferative effects [3]: superior antiproliferative effects
- degradation of AURKA (AURKA (Aurora A)): potent and selective degradation

SMILES: Cc1nc(Nc2ncc(C(=O)Nc3c(C)cccc3Cl)s2)cc(N2CCN(CC(=O)NCCCCNC(=O)COc3cccc4c3C(=O)N(C3CCC(=O)NC3=O)C4=O)CC2)n1 (stereo not shown) [DB-3-291]
- selectivity among CSK-degrading compounds (CSK): greatest selectivity
- degradation of CSK (CSK; compared with the 15 library compounds that target CSK): strongest degradation

SMILES: CC(C)S(=O)(=O)c1ccccc1Nc1nc(Nc2ccc(N3CCN(CCOCCNC(=O)CNc4cccc5c4C(=O)N(C4CCC(=O)NC4=O)C5=O)CC3)cc2)ncc1Cl (stereo not shown) [SK-3–91]
- transcript levels (MOLT-4 cells; 8 and 12 h time points): complete transcriptional collapse
- transcript levels (MOLT-4 cells; up until the 4 h time point): largely unchanged
- transcriptional changes of CAMKK2, DNAPK, IKKe and JAK2 (MOLT-4 cells; 4 h treatment): no upregulation
- enriched proteins in the CRBN AP-MS (FLAG-tagged CRBN): fewer enriched proteins
- YES1 complex formation with CRBN and degradation (YES1): complex formation does not predict degradation
- GCK engagement, inhibition of probe binding (GCK [1]): 50 %I
- degradation of GCK (GCK [2]): not degraded
- degradation of BUB1 (BUB1): degraded

SMILES: Cc1ncsc1-c1ccc([C@H](C)NC(=O)[C@@H]2C[C@@H](O)CN2C(=O)[C@@H](NC(=O)CCOCCOCCNc2nccc(-c3sc(C(C)(C)C)nc3-c3cccc(NS(=O)(=O)c4c(F)cccc4F)c3F)n2)C(C)(C)C)cc1 [DD-03–156]
- degradation of LIMK2 (LIMK2): potent and selective degradation
- degradation of CDK17 (CDK17): potent and selective degradation; also recorded: exquisite
